# According to ChEMBL document CHEMBL1150000, “Purine 2, 3-acyclonucleosides: Improved synthesis and antiparasitic actimity” (Bioorg Med Chem Lett, 1995):
# Active and inactive are the calls of the source. No cut-off for these calls is given here.
# Assays:
# Leishmania donovani = experiment: In vitro inhibitory activity against Leishmania donovani; Inactive; type: functional, organism-based
# Trypanosoma cruzi = experiment: In vitro inhibitory activity against growth of Trypanosoma cruzi at a concentration of 30 uM; 20-40%; type: functional; settings: read-out: GI
# Trypanosoma brucei [1] = experiment: In vitro inhibitory activity against Trypanosoma brucei; type: functional, organism-based
# Trypanosoma brucei [2] = experiment: In vitro inhibitory activity against Trypanosoma brucei; Inactive; type: functional, organism-based
Compound,IC50 (Trypanosoma brucei [1]),IC50 (Trypanosoma brucei [2]),Activity (Leishmania donovani),inhibition of growth at 30 µM (Trypanosoma cruzi)
Nc1ncnc2c1ncn2C(CO)OC(CO)CCl (stereo unspecified),–,–,inactive,40%
CCC(CO)OC(CO)n1cnc2c(N)ncnc21 (stereo unspecified),–,–,inactive,40%
CC(=O)OCC(COC(C)=O)OC(COC(C)=O)n1cnc2c(O)ncnc21 (stereo unspecified),5.4 µM,–,inactive,–
CC(=O)OCCSCC(COC(C)=O)OC(COC(C)=O)n1cnc2c(N)ncnc21 (stereo unspecified),5.3 µM,–,inactive,–

# Continued, in another order:
IC50 (Trypanosoma brucei [1]),IC50 (Trypanosoma brucei [2]),Compound,Activity (Leishmania donovani),inhibition of growth at 30 µM (Trypanosoma cruzi)
–,≥ 100 µM,Nc1ncnc2c1ncn2C(CO)OC(CO)CSCCO (stereo unspecified),inactive,–
7 µM,–,CC(=O)OCC(CO)OC(COC(C)=O)n1cnc2c(N)ncnc21 (stereo unspecified),inactive,–
–,≥ 100 µM,Nc1ncnc2c1ncn2C(CO)OC(CO)CO (stereo unspecified),inactive,–
–,≥ 100 µM,OCC(CO)OC(CO)n1cnc2c(O)ncnc21 (stereo unspecified),inactive,–
